Patent US20220218714A1, “METHOD OF TREATING CANCER” (Epizyme, Inc., priority 2013, published 2022)

Key:
HS-SY-II cells [1] = test: Gene expression changes in vitro (RT-PCR, normalized to GAPDH); assay type: cell-based, human; conditions: HS-SY-II in vitro culture
Procedure: ATF3, EGR1, CDKN2A and GAPDH expression were analyzed by using the TaqMan Gene Expression Assays (Life technologies, 4331182) and the TaqMan Probes (Hs00231069_ml, Hs00152928_ml, Hs00233365_ml, and Hs99999905_ml, respectively).

SW982 cells [2] = conditions: SW982 in vitro culture
HS-SY-II cells [3] = test: Adherent cell line 14-day long-term proliferation assay (CellTiter-Glo); assay type: cell-based, human
Procedure: (§1) 96-well plating for 7 day assay: For each adherent cell line, plated cells in a volume of 100 μL in 96-well plates, to be treated in triplicate, either in the evening (to treat with compound the following day) or in morning (to treat with compound in the evening), to allow cells to attach to plates before compound treatment.
(§2) 6-well plates to be split for 7-14 day assay: Plated 2mL of cells at the correct density in each well of the 6-well plate. Calculated the correct density from the 96-well plate growth curve by multiplying the 96-well density by 30. The factor 30 came from growth area of the 6-well plate divided by the growth area of the 96-well plate (9.5cm^2/0.32cm^2=29.7, rounded up to 30), which corresponds to 30-fold more surface area in a 6-well vs. a 96-well plate.
(§3) Day 0: Treated with compound or DMSO by removing media and adding back either […] (for 96-well plate) or 2 mL (for 6-well plate) media with the correct dilutions of compound/DMSO. Table 1 includes an example of 96-well plate map. Plates were incubated for 96 hours.
(§4) Read one 96-well plate with CellTiter-Glo®, for a Day 0 reading (media change not necessary for this plate).
(§5) Day 4: Read one 96-well plate with CellTiter-Glo® for a Day 4 reading (media change not necessary for this plate before reading). Replaced media with fresh media containing compound on Day 4 in 96-well plates and 6-well plates.
(§6) Day 7: read final 96-well plate with CellTiter-Glo®.
(§7) Counted individual wells of 6-well plates, and replated cells to initial plating density in 96-well plates, as described above.
(§8) Repeated steps for Days 0-7 for Days 7-14 of the proliferation assay.
(§9) Particularly, approximately 12 hours before compound treatment, HS-SY-II or SW982 cells were plated at the density of 24,000 cells/well and 7,500 cells/well, respectively in 6-well plates. On day 0, cells were treated with either DMSO or compound starting at 10 μmol/L and decreasing in fourfold dilutions. On day 7, the cells in 6-well plates were trypsinized, counted by TC10 automated cell counter (Bio-Rad, Richmond, Calif.) and replated at the density of 800 cells/well and 250 cells/well for HS-SY-II and SW982, respectively in 96-well plates in triplicate. The cells were allowed to adhere to the plate overnight, and treated with either DMSO or compound as on Day 0. On days 0, 7, 11, and 14, cell viability was determined by CellTiter-Glo® Luminescent Cell Viability Assay (Promega) with EnVision 2103 Multilabel Reader (Perkin-Elmer, Wellesley, Mass.). Compound/media was changed with new one on Day 4 and 11. The ratios of the measured values on Days 7, 11, and 14 to that of day 7 were used to plot proliferation from day 7 to day 14, and to calculate the IC50 values on Day 14. […]

SW982 cells [4] = test: as above; assay type: cell-based, human
Procedure: as §1, §2, §3, §4, §5, §6, §7, §8, §9

SMILES	ATF3 and EGR1 expression (HS-SY-II cells [1])	CDKN2A expression (HS-SY-II cells [1])	ATF3 and EGR1 expression (SW982 cells [2])	sensitivity (cell proliferation / viability) (HS-SY-II cells [3])	sensitivity (cell proliferation / viability) (SW982 cells [4])
CCN(c1cc(-c2ccc(CN3CCOCC3)cc2)cc(C(=O)NCc2c(C)cc(C)[nH]c2=O)c1C)[C@H]1CC[C@H](N(C)C)CC1 [Compound C]	upregulated	Dose- and time-dependent CDKN2A upregulation	not in SW982		
CCN(c1cc(-c2ccc(CN3CCOCC3)cc2)cc(C(=O)NCc2c(C)cc(C)[nH]c2=O)c1C)[C@H]1CC[C@H](N(C)C)CC1 [Compound E]				high sensitivity	did not
